Several values for one entry are separate records, joined by “and”; a condition that tells them apart may be missing. Equal entries are not always repeated.
Test: UV absorption properties (λmax, molar extinction coefficient ε, efficiency E 1%, 1 cm)
Assay type: physicochemical
[1] = values in order of the λmax values
[2] = Table 7, values in order of the λmax values
[3] = Table 6A, N-isobutyl-C3-benzoyl compounds

Structure (SMILES)	UV λmax	ε (molar extinction coefficient) [1]	further results
Cc1ccc(N2C=C(C(=O)C(F)(F)F)C(C)(C)CC2)cc1 [Compound 197, 1-(4,4-dimethyl-1-(p-tolyl)-1,4,5,6-tetrahydropyridin-3-yl)-2,2,2-trifluoroethanone]	337 nm	43513 M⁻¹ cm⁻¹	–
CC(=O)CC1=CC(C)(C)CCN1CC(C)C	–	–	E (1%, 1 cm) (Table 12): 675; ε (Table 12): 16000 M⁻¹ cm⁻¹; λmax (Table 12, 2-substituted compounds): 314 nm
C=CC(=O)C1=CN(c2ccc(OC)cc2)CCC1(C)C [Compound 53, 1-(1-(4-methoxyphenyl)-4,4-dimethyl-1,4,5,6-tetrahydropyridin-3-yl)prop-2-en-1-one]	350 nm	21500 M⁻¹ cm⁻¹	–
CC(C)=CC(=O)C1=CN(CC(C)C)CCC1(C)C [drawing 107]	–	–	λmax (Table 7, unsaturated compounds): 314 nm; E (1%, 1 cm) [2]: 757; ε [2]: 19000 M⁻¹ cm⁻¹
CC1(C)CCN(C(C)(C)C)C=C1C(=O)C1=CN(C(C)(C)C)CCC1(C)C [Compound 167, bis(1-(tert-butyl)-4,4-dimethyl-1,4,5,6-tetrahydropyridin-3-yl)methanone]	305 nm	15425 M⁻¹ cm⁻¹	–
CCC(=O)C1=CN(c2ccc(C(C)(C)C)cc2)CCC1(C)C [Compound 177, 1-(1-(4-(tert-butyl)phenyl)-4,4-dimethyl-1,4,5,6-tetrahydropyridin-3-yl)propan-1-one]	329 nm	31955 M⁻¹ cm⁻¹	–
CC1(C)CCN(c2ccc(C(C)(C)C)cc2)C=C1C(=O)C1c2ccccc2-c2ccccc21 [Compound 205, (1-(4-(tert-butyl)phenyl)-4,4-dimethyl-1,4,5,6-tetrahydropyridin-3-yl)(9H-fluoren-9-yl)methanone]	339 nm	30745 M⁻¹ cm⁻¹	–
CC(C)CN1C=C(C(=O)c2cc(C(=O)C3=CN(CC(C)C)CCC3(C)C)cc(C(=O)C3=CN(CC(C)C)CCC3(C)C)c2)C(C)(C)CC1 [Compound 22, benzene-1,3,5-triyltris ((1-isobutyl-4,4-dimethyl-1,4,5,6-tetrahydropyridin-3-yl)methanone)]	316 nm	33000 M⁻¹ cm⁻¹	–
CC(C)CN1C=C(C(=O)c2ccc(C(=O)C3=CN(CC(C)C)CCC3(C)C)cc2)C(C)(C)CC1 [drawing 88]	–	–	E (1%, 1 cm) (Table 6A): 547; ε (Table 6A): 20000 M⁻¹ cm⁻¹; λmax [3]: 320 nm
CCC(=O)C1=CN(CC(C)C)C(=O)CC1(C)C [Compound 64, 1-isobutyl-4,4-dimethyl-5-propionyl-3,4-dihydropyridin-2(1H)-one]	291 nm	–	–
CC1(C)CCN(C(C)(C)C)C=C1C(=O)Nc1ccc(Cc2ccc(NC(=O)C3=CN(C(C)(C)C)CCC3(C)C)cc2)cc1 [Compound 185, N,N′-(methylenebis(4,1-phenylene))bis(1-(tert-butyl)-4,4-dimethyl-1,4,5,6-tetrahydropyridine-3-carboxamide)]	310 nm	64589 M⁻¹ cm⁻¹	–
Cc1cc(N2C=CC(C)(C)C=C2)n(C)n1 [Compound 152, 1-(1,3-dimethyl-1H-pyrazol-5-yl)-4,4-dimethyl-1,4-dihydropyridine]	253 nm	11371 M⁻¹ cm⁻¹	–
CC1(C)C=CN(c2ccccc2)C=C1 [drawing 125]	–	–	E (1%, 1 cm) (Table 8a): 866; ε (Table 8a): 16000 M⁻¹ cm⁻¹; λmax (Table 8a, N-phenyl compounds): 285 nm
CCC(=O)C1=CN(CC(C)C)C=CC1(C)C [Compound 65, 1-(1-isobutyl-4,4-dimethyl-1,4-dihydropyridin-3-yl)propan-1-one]	366 nm	–	–
CC(C)(C)c1ccc(C(=O)CC(=O)c2ccc(OCc3ccc(Br)cc3)cc2)cc1 [Compound 9, 1-(4-((4-bromobenzyl)oxy)phenyl)-3-(4-(tert-butyl)phenyl)propane-1,3-dione]	357 nm	35500 M⁻¹ cm⁻¹	–
Cc1ccc(N2C=C(C(=O)Nc3ccc(C)c(NC(=O)C4=CN(C(C)(C)C)CCC4(C)C)c3)C(C)(C)CC2)cc1 [Compound 190, 1-(tert-butyl)-N-(5-(4,4-dimethyl-1-(p-tolyl)-1,4,5,6-tetrahydropyridine-3-carboxamido)-2-methylphenyl)-4,4-dimethyl-1,4,5,6-tetrahydropyridine-3-carboxamide]	314 nm	51743 M⁻¹ cm⁻¹	–
C=C/C=C/CC(=O)C1=CN(CC(C)C)CCC1(C)C [drawing 109]	–	–	λmax (Table 7, unsaturated compounds): 311 nm; E (1%, 1 cm) [2]: 1053; ε [2]: 27500 M⁻¹ cm⁻¹
COc1ccc(C(=O)C2=CN(CC(C)C)CCC2(C)C)c(OC)c1 [drawing 91]	–	–	E (1%, 1 cm) (Table 6A): 286; ε (Table 6A): 9500 M⁻¹ cm⁻¹; λmax [3]: 313 nm
Cc1ccc(N2C=C(C(=O)CCCCCCCCC(=O)C3=CN(c4ccc(C)cc4)CCC3(C)C)C(C)(C)CC2)cc1 [Compound 172, 1,10-bis(4,4-dimethyl-1-(p-tolyl)-1,4,5,6-tetrahydropyridin-3-yl)decane-1,10-dione]	328 nm	52737 M⁻¹ cm⁻¹	ε value (unit inferred): > 52000 M⁻¹ cm⁻¹
CC(C)CN1C=C(C(=O)c2ccccc2)C(C)(C)CC1 [drawing 87]	–	–	E (1%, 1 cm) (Table 6A): 701; ε (Table 6A): 19000 M⁻¹ cm⁻¹; λmax [3]: 316 nm
CC1(C)C=CN(c2ccccc2)CC1 [drawing 121]	–	–	E (1%, 1 cm) (Table 8a): 1205; ε (Table 8a): 22550 M⁻¹ cm⁻¹; λmax (Table 8a, N-phenyl compounds): 278 nm
COc1ccc(C(=O)C2=CN(CC(C)C)CCC2(C)C)cc1 [drawing 52]	–	–	λmax (Table 2, compounds 11-13): 319 nm
CC(C)CN1C=C(C(=O)CCC(=O)O)C(C)(C)CC1 [drawing 171]	–	–	λmax (Table 13A, miscellaneous compounds): 308 nm
CC(C)CN1C=C(C(=O)CCC=Cc2ccc(COc3ccc(C(=O)CC(=O)c4ccc(C(C)(C)C)cc4)cc3)cc2)C(C)(C)CC1 (racemic) [Compound 10, 1-(4-(tert-butyl)phenyl)-3-(4-((4-(5-(1-isobutyl-4,4-dimethyl-1,4,5,6-tetrahydropyridin-3-yl)-5-oxopent-1-en-1-yl)benzyl)oxy)phenyl)propane-1,3-dione]	314 nm and 357 nm	23250 M⁻¹ cm⁻¹ and 24050 M⁻¹ cm⁻¹	–
C=C(C)CC(=O)C1=CN(CC(C)C)CCC1(C)C [drawing 108]	–	–	λmax (Table 7, unsaturated compounds): 306 nm; E (1%, 1 cm) [2]: 574; ε [2]: 14500 M⁻¹ cm⁻¹

Now from value to molecule, other results behind:

UV λmax	ε (molar extinction coefficient) [1]	Structure (SMILES)	further results
313 nm	26154 M⁻¹ cm⁻¹	CC1(C)CCN(C(C)(C)C)C=C1C(=O)COc1ccccc1 [Compound 168, 1-(1-(tert-butyl)-4,4-dimethyl-1,4,5,6-tetrahydropyridin-3-yl)-2-phenoxyethanone]	–
318 nm	22500 M⁻¹ cm⁻¹	CC(C)CN1C=C(C(=O)c2ccc(Br)cc2)C(C)(C)CC1 [Compound 16, (4-bromophenyl)(1-isobutyl-4,4-dimethyl-1,4,5,6-tetrahydropyridin-3-yl)methanone]	–
311 nm	–	C=C/C=C/CC(=O)C1=CN(CC(C)C)CCC1(C)C [Compound 28, (E)-1-(1-isobutyl-4,4-dimethyl-1,4,5,6-tetrahydropyridin-3-yl)hexa-3,5-dien-1-one]	–
316 nm	19000 M⁻¹ cm⁻¹	CC(C)CN1C=C(C(=O)c2ccccc2)C(C)(C)CC1 [Compound 20, (1-isobutyl-4,4-dimethyl-1,4,5,6-tetrahydropyridin-3-yl)(phenyl)methanone]	–
339 nm	26633 M⁻¹ cm⁻¹	COc1ccc(N2C=C(C(=O)COc3ccccc3)C(C)(C)CC2)cc1 [Compound 173, 1-(1-(4-methoxyphenyl)-4,4-dimethyl-1,4,5,6-tetrahydropyridine-3-yl)-2-phenoxyethanone]	–
320 nm	20000 M⁻¹ cm⁻¹	CC(C)CN1C=C(C(=O)c2ccc(C(=O)C3=CN(CC(C)C)CCC3(C)C)cc2)C(C)(C)CC1 [Compound 21, 1,4-phenylenebis ((1-isobutyl-4,4-dimethyl-1,4,5,6-tetrahydropyridin-3-yl)methanone)]	–
324 nm	35759 M⁻¹ cm⁻¹	CC1(C)CCN(c2ccc(C(C)(C)C)cc2)C=C1C(=O)Nc1ccccc1 [Compound 193, 1-(4-(tert-butyl)phenyl)-4,4-dimethyl-N-phenyl-1,4,5,6-tetrahydropyridine-3-carboxamide]	–
306 nm	14500 M⁻¹ cm⁻¹	C=C(C)CC(=O)C1=CN(CC(C)C)CCC1(C)C [Compound 27, 1-(1-isobutyl-4,4-dimethyl-1,4,5,6-tetrahydropyridin-3-yl)-3-methylbut-3-en-1-one]	–
364 nm	16150 M⁻¹ cm⁻¹	COc1ccc(/C=C/C(=O)C2=CN(CC(C)C)CCC2(C)C)cc1 [Compound 34, (E)-1-(1-isobutyl-4,4-dimethyl-1,4,5,6-tetrahydropyridin-3-yl)-3-(4-methoxyphenyl)prop-2-en-1-one]	–
308 nm	–	CC(C)CN1C=C(C(=O)CCC(=O)O)C(C)(C)CC1 [Compound 70, 4-(1-isobutyl-4,4-dimethyl-1,4,5,6-tetrahydropyridin-3-yl)-4-oxobutanoic acid]	–
312 nm	15174 M⁻¹ cm⁻¹	CN(C(=O)C1=CN(C(C)(C)C)CCC1(C)C)c1ccccc1 [Compound 180, 1-(tert-butyl)-N,4,4-trimethyl-N-phenyl-1,4,5,6-tetrahydropyridine-3-carboxamide]	–
323 nm	33948 M⁻¹ cm⁻¹	Cc1ccc(N2C=C(C(=O)Nc3ccccc3)C(C)(C)CC2)cc1 [Compound 192, 4,4-dimethyl-N-phenyl-1-(p-tolyl)-1,4,5,6-tetrahydropyridine-3-carboxamide]	–
369 nm	17000 M⁻¹ cm⁻¹	CC(C)CN1C=C(C(=O)/C=C/c2ccc(C(F)(F)F)cc2)C(C)(C)CC1 [Compound 33, (E)-1-(1-Isobutyl-4,4-dimethyl-1,4,5,6-tetrahydropyridin-3-yl)-3-(4-(trifluoromethyl)phenyl)prop-2-en-1-one]	–
